Each structure is given as a SMILES string.

The target in one assay is T1, Protein kinase Pfmrk (Plasmodium falciparum, UniProt P90584).
T1 sequence (P90584 whole entry): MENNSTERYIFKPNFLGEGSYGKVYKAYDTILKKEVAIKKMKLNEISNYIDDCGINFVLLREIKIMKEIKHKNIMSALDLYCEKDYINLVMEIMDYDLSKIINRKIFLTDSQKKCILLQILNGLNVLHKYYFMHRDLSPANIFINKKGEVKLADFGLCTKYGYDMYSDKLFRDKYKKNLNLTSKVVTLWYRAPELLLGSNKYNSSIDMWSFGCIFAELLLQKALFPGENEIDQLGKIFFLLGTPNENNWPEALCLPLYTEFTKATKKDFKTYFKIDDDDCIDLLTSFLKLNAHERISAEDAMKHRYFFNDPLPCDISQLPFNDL
The assay can be described thus: Inhibition of Plasmodium falciparum Pfmrk.

Assay [1] deals with Plasmodium falciparum. Description: Antimalarial activity against drug-resistant Plasmodium falciparum D6. The class given is functional, organism-based.
The test system of assay [2] is Plasmodium falciparum. The assay can be described thus: Antimalarial activity against drug-resistant Plasmodium falciparum W2. The class given is functional, organism-based.

`NCCNS(=O)(=O)c1cccc2cnccc12`: the IC50 (in general, the concentration at which inhibition is half-maximal) is 0.7 µM against Protein kinase Pfmrk, greater than 72 µM in the assay on Plasmodium falciparum [1] and greater than 72 µM in the assay with Plasmodium falciparum [2].
In the case of `O=S(=O)(c1cccc2cnccc12)N1CCCNCC1` [FASUDIL], the IC50 at Protein kinase Pfmrk is greater than 500 µM.
Consider `N=C(N)NCCNS(=O)(=O)c1cccc2cnccc12`, for which the IC50 against Protein kinase Pfmrk was greater than 500 µM.
For `CNCCNS(=O)(=O)c1cccc2cnccc12`, the IC50 was 70 µM at Protein kinase Pfmrk, greater than 74 µM with Plasmodium falciparum [1] and greater than 37 µM in the assay on Plasmodium falciparum [2].
The matching figures for `O=S(=O)(c1cccc2cnccc12)N1CCNCC1`: greater than 500 µM, greater than 36 µM and 4.3 µM.
`O=S(=O)(c1cccc2c(I)cccc12)N1CCCNCC1` showed an IC50 on Protein kinase Pfmrk greater than 500 µM.
Still for that read-out and setting: the value for `NCCCCNS(=O)(=O)c1cccc2c(Cl)cccc12` was greater than 500 µM.
`C[C@H]1CNCCN1S(=O)(=O)c1cccc2cnccc12`: the figures for the IC50 on Protein kinase Pfmrk, with Plasmodium falciparum [1] and in the assay on Plasmodium falciparum [2] were greater than 500 µM, greater than 69 µM and 5.4 µM, respectively.
The matching figures for `O=S(=O)(NCCNC/C=C/c1ccc(Br)cc1)c1cccc2cnccc12`: greater than 500 µM, 4.8 µM and 2.1 µM.
In turn, `O=S(=O)(c1cccc2c(Cl)cccc12)N1CCCNCC1` displayed an IC50 on Protein kinase Pfmrk greater than 500 µM.
As to `NCCCCCCNS(=O)(=O)c1cccc2c(Cl)cccc12`, the IC50 against Protein kinase Pfmrk was greater than 500 µM; in the assay on Plasmodium falciparum [1] it was 8.8 µM; in the assay on Plasmodium falciparum [2], 15 µM.
At Protein kinase Pfmrk, `NCCCCNS(=O)(=O)c1ccc2ccccc2c1` registered an IC50 greater than 500 µM.

(Values after ChEMBL document CHEMBL1140676, “Evaluation of broad spectrum protein kinase inhibitors to probe the architecture of the malarial cyclin dependent protein kinase Pfmrk” (Bioorg Med Chem Lett, 2007).)
